In this assay the target is Metabotropic glutamate receptor 5 (Homo sapiens, UniProt P41594). As to the kind of experiment: Binding Assay: For binding experiments, cDNA encoding human mGlu 5a receptor was transiently transfected into EBNA cells using a procedure described by Schlaeger and Christensen [Cytotechnology 15:1-13 (1998)]. Cell membrane homogenates were stored at -80° C. until the day of assay where upon they were thawed and resuspended and polytronised in 15 mM Tris-HCl, 120 mM NaCl, 100 mM KCl, 25 mM CaCl2, 25 mM MgCl2 binding buffer at pH 7.4 to a final assay concentration of 20 ug protein/well.Saturation isotherms were determined by addition of twelve [3H]MPEP concentrations (0.04-100 nM) to these membranes (in a total volume of 200 ul) for 1 h at 4° C. Competition experiments were performed with a fixed concentration of [3H]MPEP (2 nM) and IC50 values of test compounds evaluated using 11 concentrations (0.3-10,000 nM). Incubations were performed for 1 h at 4° C.At the end of the incubation, membranes were filtered onto unifilter (96-well white microplate with bonded GF/C filter preincubated 1 h in 0.1% PEI in wash buffer, Packard BioScience, Meriden, Conn.) with a Filtermate 96 harvester (Packard BioScience) and washed 3 times with cold 50 mM Tris-HCl, pH 7.4 buffer. Nonspecific binding was measured in the presence of 10 uM MPEP. […].
Sequence of Metabotropic glutamate receptor 5 (P41594 whole entry): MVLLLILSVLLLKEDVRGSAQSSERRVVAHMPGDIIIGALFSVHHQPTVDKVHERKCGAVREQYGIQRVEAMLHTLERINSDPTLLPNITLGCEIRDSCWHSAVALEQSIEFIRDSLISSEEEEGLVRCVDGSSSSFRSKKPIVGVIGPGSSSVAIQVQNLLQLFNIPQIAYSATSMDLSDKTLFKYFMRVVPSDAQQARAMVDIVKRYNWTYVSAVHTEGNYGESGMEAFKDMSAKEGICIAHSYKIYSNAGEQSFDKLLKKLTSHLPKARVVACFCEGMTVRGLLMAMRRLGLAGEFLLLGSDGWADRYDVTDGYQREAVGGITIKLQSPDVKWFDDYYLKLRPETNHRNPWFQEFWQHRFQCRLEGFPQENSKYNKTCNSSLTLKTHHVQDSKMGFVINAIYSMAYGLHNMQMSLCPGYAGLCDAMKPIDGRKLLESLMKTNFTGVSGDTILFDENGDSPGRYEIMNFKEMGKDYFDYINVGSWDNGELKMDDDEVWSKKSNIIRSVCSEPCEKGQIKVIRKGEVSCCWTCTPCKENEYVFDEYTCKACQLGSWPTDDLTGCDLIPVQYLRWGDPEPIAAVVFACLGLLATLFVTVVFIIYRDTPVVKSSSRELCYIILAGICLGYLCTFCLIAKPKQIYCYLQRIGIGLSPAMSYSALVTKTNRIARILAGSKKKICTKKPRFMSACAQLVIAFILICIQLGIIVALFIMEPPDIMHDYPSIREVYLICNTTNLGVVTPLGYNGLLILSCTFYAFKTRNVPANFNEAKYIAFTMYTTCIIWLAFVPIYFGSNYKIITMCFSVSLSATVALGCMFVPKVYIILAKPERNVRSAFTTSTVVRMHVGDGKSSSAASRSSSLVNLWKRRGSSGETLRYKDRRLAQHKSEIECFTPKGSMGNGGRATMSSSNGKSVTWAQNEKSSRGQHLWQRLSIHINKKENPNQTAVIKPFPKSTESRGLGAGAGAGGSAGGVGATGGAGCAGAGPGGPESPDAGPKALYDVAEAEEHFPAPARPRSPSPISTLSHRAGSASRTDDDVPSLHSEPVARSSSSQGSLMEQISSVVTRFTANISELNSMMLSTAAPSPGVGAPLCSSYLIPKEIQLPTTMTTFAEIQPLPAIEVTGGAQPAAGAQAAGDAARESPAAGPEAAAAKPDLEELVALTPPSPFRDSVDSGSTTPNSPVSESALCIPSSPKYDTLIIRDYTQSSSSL

The record followed here is ChEMBL document CHEMBL3886457, “Ethynyl derivatives” (2016).

The term Ki denotes the equilibrium dissociation constant of an inhibitor or competing ligand from its target.

For `O=C(c1ccc(C#Cc2cccc(Cl)c2)cn1)N1CCOCC1`, the Ki amounted to 19 nM.
